Results: patent US10023562B2, “Heteroaryl substituted pyridyl compounds useful as kinase modulators” (BRISTOL-MYERS SQUIBB COMPANY, priority 2012, dated 2018)
pIC50: −log10 of the molar value.

Test system: TLR2 induced IL-6 in peripheral blood mononuclear cells (PBMCs)
Test: PBMC TLR2 Induced IL-6 Assay
Assay type: cell-based
Conditions: Homo sapiens, PBMC, 5 h, 10 μg/ml lipoteichoic acid for 5 hours, IL-6 by ELISA, values without asterisk, read-out: Cell IC50
Procedure: PBMC TLR2 Induced IL-6 Assay Peripheral blood mononuclear cells (PBMCs) were isolated from human blood containing the anti-coagulant EDTA (2.5 mM) by centrifugation over a FICOLL® gradient. […] At the end of the culture, plates were centrifuged at 1800 rpm for 10 minutes to pellet the cells. Supernatants were harvested and analyzed for IL-6 levels by ELISA (BD Biosciences, San Jose, Calif.).

Row | SMILES | pIC50
1 | CC(C)Nc1cc(Nc2ccc(C#N)c(N3CCC(O)C3)n2)ncc1C(=O)NC[C@@H](F)C(C)(C)O (stereo in doubt) [Example 27, 6-((5-cyano-6-((3S)-3-hydroxy-1-pyrrolidinyl)-2-pyridinyl)amino)-N-((2R)-2-fluoro-3-hydroxy-3-methylbutyl)-4-(isopropylamino)nicotinamide] | 6.88
2 | CNC(=O)c1cnc(Nc2ccc(C#N)cn2)cc1N[C@@H](c1ccccc1)[C@H](O)CO [Example 1, 6-((5-cyano-2-pyridinyl)amino)-4-(((1S,2S)-2,3-dihydroxy-1-phenylpropyl)amino)-N-methylnicotinamide] | 6.26
3 | CC(C)Nc1cc(Nc2ccc(C#N)cn2)ncc1C(=O)NC[C@@H](F)C(C)(C)O [Example 2, 6-((5-cyano-2-pyridinyl)amino)-N-((2R)-2-fluoro-3-hydroxy-3-methylbutyl)-4-(isopropylamino)nicotinamide] | 6.34
4 | CC(C)(O)[C@H](F)CNC(=O)c1cnc(Nc2ccc(C#N)cn2)cc1NCC(F)(F)F [Example 3, 6-((5-cyano-2-pyridinyl)amino)-N-((2R)-2-fluoro-3-hydroxy-3-methylbutyl)-4-((2,2,2-trifluoroethyl)amino)nicotinamide] | 6.10
5 | CCNc1cc(Nc2ccc(C#N)cn2)ncc1C(=O)NC[C@@H](F)C(C)(C)O [Example 4, 6-((5-cyano-2-pyridinyl)amino)-4-(ethylamino)-N-((2R)-2-fluoro-3-hydroxy-3-methylbutyl)nicotinamide] | 6.34
6 | CNC(=O)[C@H]1CC[C@H](NC(=O)c2cnc(Nc3ccc(C#N)cn3)cc2NC(C)C)CC1 [Example 5, 6-((5-cyano-2-pyridinyl)amino)-4-(isopropylamino)-N-(trans-4-(methylcarbamoyl)cyclohexyl)nicotinamide] | 6.23
7 | CC(C)Nc1cc(Nc2ccc(C#N)cn2)ncc1C(=O)N[C@H]1CC[C@H](C(=O)NC2CC2)CC1 [Example 6, 6-((5-cyanopyridin-2-yl)amino)-N-((1R,4R)-4-(cyclopropylcarbamoyl)cyclohexyl)-4-(isopropylamino)nicotinamide] | 6.19
8 | CC(C)Nc1cc(Nc2ccc(C#N)cn2)ncc1C(=O)N[C@H]1CC[C@H](C(=O)N[C@H]2C[C@H]2F)CC1 [Example 7, 6-((5-cyano-2-pyridinyl)amino)-N-(trans-4-(((1S,2R)-2-fluorocyclopropyl)carbamoyl)cyclohexyl)-4-(isopropylamino)nicotinamide] | 6.10
9 | CC(=O)N1CCC(NC(=O)c2cnc(Nc3ccc(C#N)cn3)cc2NC(C)C)CC1 [Example 8, N-(1-acetyl-4-piperidinyl)-6-((5-cyano-2-pyridinyl)amino)-4-(isopropylamino)nicotinamide] | 6.36
10 | CC(=O)N[C@H]1CC[C@H](NC(=O)c2cnc(Nc3ccc(C#N)cn3)cc2NC(C)C)CC1 [Example 9, N-(trans-4-acetamidocyclohexyl)-6-((5-cyano-2-pyridinyl)amino)-4-(isopropylamino)nicotinamide] | 6.94
11 | CC(=O)N[C@H]1CC[C@H](NC(=O)c2cnc(Nc3ccc(C#N)cn3)cc2NC2CCOCC2F)CC1 (stereo partly drawn) [Example 11, N-((1R,4R)-4-acetamidocyclohexyl)-6-((5-cyanopyridin-2-yl)amino)-4-(((3 S,4R)-3-fluorotetrahydro-2H-pyran-4-yl)amino)nicotinamide] | 6.49
12 | CC(C)Nc1cc(Nc2ncc(C#N)cc2Cl)ncc1C(=O)NC[C@@H](F)C(C)(C)O [Example 12, 6-((3-chloro-5-cyano-2-pyridinyl)amino)-N-((2R)-2-fluoro-3-hydroxy-3-methylbutyl)-4-(isopropylamino)nicotinamide] | 7.30
13 | CC(C)(O)[C@H](F)CNC(=O)c1cnc(Nc2ncc(C#N)cc2Cl)cc1NC1CCOCC1 [Example 13, 6-((3-chloro-5-cyano-2-pyridinyl)amino)-N-((2R)-2-fluoro-3-hydroxy-3-methylbutyl)-4-(tetrahydro-2H-pyran-4-ylamino)nicotinamide] | 6.38
14 | CC(C)(O)[C@H](F)CNC(=O)c1cnc(Nc2ncc(C#N)cc2Cl)cc1NC1CC1 [Example 14, 6-((3-chloro-5-cyano-2-pyridinyl)amino)-4-(cyclopropylamino)-N-((2R)-2-fluoro-3-hydroxy-3-methylbutyl)nicotinamide] | 7.37
15 | CC(=O)N[C@H]1CC[C@H](NC(=O)c2cnc(Nc3ncc(C#N)cc3Cl)cc2NC(C)C)CC1 [Example 15, N-((1r,4r)-4-acetamidocyclohexyl)-6-((3-chloro-5-cyanopyridin-2-yl)amino)-4-(isopropylamino)nicotinamide] | 6.61
16 | CNC(=O)[C@H]1CC[C@H](NC(=O)c2cnc(Nc3ncc(C#N)cc3Cl)cc2NC(C)C)CC1 [Example 16, 6-((3-chloro-5-cyanopyridin-2-yl)amino)-4-(isopropylamino)-N—((1r,4r)-4-(methylcarbamoyl)cyclohexyl)nicotinamide] | 6.67
17 | CC(C)Nc1cc(Nc2ncc(C#N)cc2F)ncc1C(=O)NC[C@@H](F)C(C)(C)O [Example 17, 6-((5-cyano-3-fluoro-2-pyridinyl)amino)-N-((2R)-2-fluoro-3-hydroxy-3-methylbutyl)-4-(isopropylamino)nicotinamide] | 6.42
18 | CNC(=O)[C@H]1CC[C@H](NC(=O)c2cnc(Nc3ncc(C#N)cc3F)cc2NC(C)C)CC1 [Example 18, 6-((5-cyano-3-fluoropyridin-2-yl)amino)-4-(isopropylamino)-N-((1r,4r)-4-(methylcarbamoyl)cyclohexyl)nicotinamide] | 6.86
19 | CC(=O)N[C@H]1CC[C@H](NC(=O)c2cnc(Nc3ncc(C#N)cc3F)cc2NC(C)C)CC1 [Example 19, N-(trans-4-acetamidocyclohexyl)-6-((5-cyano-3-fluoro-2-pyridinyl)amino)-4-(isopropylamino)nicotinamide] | 6.42
20 | CC(C)Nc1cc(Nc2ccncn2)ncc1C(=O)NC[C@@H](F)C(C)(C)O [Example 20, N-((2R)-2-fluoro-3-hydroxy-3-methylbutyl)-4-(isopropylamino)-6-(4-pyrimidinylamino)nicotinamide] | 6.19
21 | CC(C)(O)[C@H](F)CNC(=O)c1cnc(Nc2ccncn2)cc1NC1CC1 [Example 21, 4-(cyclopropylamino)-N-((2R)-2-fluoro-3-hydroxy-3-methylbutyl)-6-(4-pyrimidinylamino)nicotinamide] | 6.48
22 | CC(C)Nc1cc(Nc2ncc(C#N)cn2)ncc1C(=O)NC[C@@H](F)C(C)(C)O [Example 22, 6-((5-cyano-2-pyrimidinyl)amino)-N-((2R)-2-fluoro-3-hydroxy-3-methylbutyl)-4-(isopropylamino)nicotinamide] | 6.47
23 | CC(C)(O)[C@H](F)CNC(=O)c1cnc(Nc2nc(-c3cccnc3)cs2)cc1NC1CC1 [Example 23, 4-(cyclopropylamino)-N-((2R)-2-fluoro-3-hydroxy-3-methylbutyl)-6-((4-(3-pyridinyl)-1,3-thiazol-2-yl)amino)nicotinamide] | 7.49
24 | CC(C)Nc1cc(Nc2ccnc(NC3CC3)n2)ncc1C(=O)NC[C@@H](F)C(C)(C)O [Example 24, 6-((2-(cyclopropylamino)-4-pyrimidinyl)amino)-N-((2R)-2-fluoro-3-hydroxy-3-methylbutyl)-4-(isopropylamino)nicotinamide] | 6.51
